Assay [1] concerns CD34+CD38- (stem) and CD34+CD38+ (prog) cells. Put plainly: LC3II immunofluorescence with and without Baflomycin A1 (autophagy). The class given is cell-based, human. The conditions noted are these: day 2, 2 uM 4HPR, in the presence of BAF; stem vs prog. As to the method: (A) Representative mmunofluorescence images taken by confocal microscopy for DAPI (blue) and LC3II staining (green) for CD34+CD38− cells (stem) following 2 days of treatment with DMSO control or 2 uM 4HPR with and without the autophagy inhibitor baflomycin A1 (BAF) to assay for basal autophagy and autophagic flux. (B) Quantitation of LC3II foci area as a percentage of total cell area for stem and prog (CD34+38+) cells from three independent CB using R and Image J software. (C) LCII foci area is increased with 4HPR treatment relative to control in the presence of BAF only in stem populations and not Prog populations. (D) Representative flow cytometry histogram plot of cyto-ID fluorescence intensity of control (black) and 4HPR (green) treated stem cells to assay for autophagic flux. Lower mean fluorescence intensity (MFI) indicates more turnover of autophagosomes and thus increased autophagic flux. […] (F) Cytokine withdrawal for 3 hours activates autophagic flux in CB stem cells to similar levels as 2 uM 4HPR as assayed by cyto-ID flow cytometry at day 2 post-treatment (n=3).
We hypothesize that such selective enhancement of CFC cloning efficiency with 4HPR treatment is a result of activating autophagy in HSC in human CB. Warr et all had previously shown that mouse HSC, but not comitted progenitors activate autophagy under stress stimuli. […]

In assay [2] the test system is ex vivo expanded human CB cells in NSG mice. Put plainly: Primary xenotransplantation of ex vivo expanded CB cells, 16 weeks. An excerpt: (A) Experimental scheme (B) Representative FACS analysis data of in vitro culture for 16 HSC dose time course (n=3). The number of (C) viable cells, (D) CD15+ myeloid cells, (E) GlyA+ erythroid cells, and (F) CD34+ primitive cells measured for the 16 LTRC dose with HTS flow cytometry analysis at day 8 post-treatment for vehicle control or 4HPR prior to xenotransplantation (n=5 biological replicates, 4 in technical triplicate, marked with different symbols). (G) Human CD45+ engraftment at 16 weeks post transplant in injected femur (n=4, 5 mice/biological experiment). Lineage analysis of control or 4HPR transplanted mice from FIG. 5G for (H) B lymphoid, (I) myeloid, (J) erythroid, and (K) primitive CD34+ at the 16 LTRC dose. (L) CD45+ cells were isolated from 5 biological experiments of the 16 LTRC dose primary mice and transplanted at limiting doses into secondary recipients for 16 weeks. Human CD45+ marking of >0.1% was considered positive for secondary engraftment. Limiting dilutation analysis was performed using ELDA software and the long-term repopulating cell (LTRC) frequency for each biological replicate plotted and the average LTRC frequency calculated.
All bones for each mouse were pooled following chimerism analysis and frozen for subsequent CD34 hierarchy analysis. Flow cytometry analysis were performed on CD34+ enriched cells using Miltenyl human CD34 enrichment protocol on thawed samples for the human CB hierarchy at the 16 HSC dose from 4 biological experiments, marked with different symbols (n=4 mice per biological experiment). The number of (B) CD34+CD19− cells, (C) CD34+CD38-, (D) CD34+CD38+, (E) HSC, (F) MPP, (G) MLP, and (I) GMP were quantitated from each mouse at 16 weeks post-transplant. Representative HSC hierarchy analysis scheme of CD34 enriched cells isolated from mice 16 weeks post-transplantation engrafted with ex vivo cultured CB cells in the presence of (J) vehicle control (black) or (K) 4HPR (green).
(A) The number of cells following 8 days of ex vivo culture at the 16 LTRC dose grown as in FIG. 5A for the indicated drug treatments (n=2). […] (2 biological replicates) (E) CD45+ cells were isolated from 2 biological experiments of the 16 LTRC dose primary mice and transplanted at limiting doses into secondary recipients for 16 weeks. […] Limiting dilutation analysis was performed using ELDA software and the long-term repopulating cell (LTRC) frequency for each biological replicate plotted and the average LTRC frequency calculated.
To determine if 4HPR preserves functional HSC in CB liquid culture, we devised an experimental protocol to test the effect of 4HPR treatment in short-term ex vivo expansion culture on repopulation in serial NSG xenotransplantation to functionally read out LT-HSC (FIG. 5A). […]

In the next assay the test system is DEGS1. The settings on record: prolong exposure at micromolar concentrations in vitro; cited from earlier work.

SMILES strings stand for the structures.

Consider `CC1=C(/C=C/C(C)=C/C=C/C(C)=C/C(=O)Nc2ccc(O)cc2)C(C)(C)CCC1` [4HPR, N-(4hydroxyphenyl)retinamide], for which the “LC3II foci area relative to ctrl (upregulation of autophagy)” value in assay [1] is recorded as “only 4HPR-treated stem cells, but not prog cells exhibit an upregulation of autophagy”. Further, in assay [2] (16 HSC dose, 16 weeks), the “lineage distribution for B lymphoid, myeloid and erythroid” value was “comparable between ctrl and 4HPR transplanted cells”. In addition, in assay [2] (16 LTRC dose, 16 weeks), the “primitive lineage negative CD34+ cells in transplanted mice” value is “equally prevalent”. Moreover, the “human CD45 chimerism” value in assay [2] (16 weeks post transplant, all cell doses) is reported as “the same CD45 chimerism as vehicle control”. The “HSPC populations of the HSC hierarchy in individual mice” value in assay [2] (16 weeks post-transplant, control vs 4HPR expanded cells) is recorded as “on average identical”. Moreover, the DEGS1 activity result in the assay on DEGS1 is reported as “irreversibly inhibits DEGS1 activity”.

(Values after patent US20190136188A1, “4HPR AND ITS USE IN THE CULTURING OF HEMATOPOIETIC STEM CELLS” (UNIVERSITY HEALTH NETWORK, priority 2016, published 2019).)
